Assay [1] deals with Y1 (DNA, duplex, free-base (2H) porphyrin-dU (porphyrin via rigid acetylene linker) at 5 of strand 1 and at 4 of strand 2) CGCATTATATGC/GCATATAATGCG
Kind of assay: CD titration (porphyrin exciton coupling), Scatchard fit. The note with it: Na+ 100 mM NaCl + 100 mM Na2HPO4 (assumed from Fig. 2 legend); 4 μM DNA; EtBr 40-800 μM; apparent; global intercalation; buffer not given; per base.

The subject of assay [2] is Y2 (DNA, duplex, free-base (2H) porphyrin-dU (porphyrin via rigid acetylene linker) at 10 of strand 1 and at 4 of strand 2) CGCATTATATGC/GCATATAATGCG
The description is as above. The note with it: Na+ 100 mM NaCl + 100 mM Na2HPO4 (assumed from Fig. 2 legend); 4 μM DNA; EtBr 40-800 μM; apparent; local site between adjacent porphyrins; buffer not given; per base.

These results are taken from PMC7054460 (2020).

Each structure is given as a SMILES string.

In the case of `CC[n+]1c(-c2ccccc2)c2cc(N)ccc2c2ccc(N)cc21`, the entries for the “Ka (association binding constant)” value in assay [1] and in assay [2] were 1.43 ± 0.2 × 10^5 M^-1 and 3.54 ± 0.4 × 10^5 M^-1, respectively.
